According to US9662461B2, “Dry powder drug delivery system and methods” (MannKind Corporation, priority 2008, dated 2017):

Legend:
[1] = VMGD and container emptying by laser diffraction, DPI 2 vs predicate inhaler (Example 6); assay type: physicochemical; conditions: 56% trans, SSA 55, 4 kPa
Text: Laser diffraction of dry powder formulations emitted from dry powder inhalers is a common methodology employed to characterize the level of de-agglomeration subjected to a powder. The methodology indicates a measure of geometric size rather than aerodynamic size as occurring in industry standard impaction methodologies. Typically, the geometric size of the emitted powder includes a volumetric distribution characterized by the median particle size, VMGD. Importantly, geometric sizes of the emitted particles are discerned with heightened resolution as compared to the aerodynamic sizes provided by impaction methods. Smaller sizes are preferred and result in greater likelihood of individual particles being delivered to the pulmonary tract. Thus, differences in inhaler de-agglomeration and ultimate performance can be easier to resolve with diffraction. In these experiments, an inhaler as specified in Example 3 and a predicate inhaler are tested with laser diffraction at pressures analogous to actual patient inspiratory capacities to determine the effectiveness of the inhalation system to de-agglomerate powder formulations. […] Reported in Table 5 are a VMGD and an efficiency of the container emptying during the testing.

[2] = In vitro powder performance DPI 2 vs MEDTONE delivery system (Example 7); assay type: physicochemical; conditions: 4 kPa
Text: In vitro powder performance for these systems was compared for various parameter of inhaler performance. For DPI 2 a single discharge per cartridge was used as compared to two discharges per cartridge in the MEDTONE® system.
Particle sizing by laser diffraction and quantification of emitted mass as described above were used in these experiments. A laser diffraction instrument (Sympatec HELOS) was adapted with a novel pressurized inhaler chamber to facilitate analysis of powder plumes. MTDS cartridges were discharged twice per determination versus once with DPI 2.

[3] = Pharmacokinetics of FDKP inhaled as FDKP inhalation powder (Example 8); assay type: in vivo, healthy volunteers; conditions: for AVG mean AUC fdkp per emitted fdkp mass: n=10
Description: The MEDTONE® inhaler system was used for comparison.
To generate a “hard” inhalation, the subject provided a nominal inhalation time of about 6.5 seconds and a peak pressure of 7 kPa. Conversely, to generate an “easy” inhalation, the subject provided a nominal inhalation time of about 6.5 seconds and a peak pressure of 5 kPa. Coupled with the inhalation monitoring apparatus, gravimetric assessment of the powder mass discharged from the cartridge was performed. This enabled a linkage between inhalation maneuver during dosing, cartridge discharge mass and pharmacokinetic profile determinations for each subject.
The study was an open-label, crossover, 2-part study in healthy volunteers.
Part 2 was carried out as a 2-part, 2-way crossover study for evaluating the effect of flow rate (15 versus 30 LPM) and inhalation time (3 versus 6 seconds). For each parameter tested (i.e., flow rate, and inhalation time), ten subjects were crossed over for each parameter with 20 subjects total for all of the parameters. Pharmacokinetics of FDPK was assessed with each treatment from blood samples taken from the subjects.

[4] = DPI 2, 10 mg fill, single discharge, n=15
[5] = MEDTONE (MTDS), 10 mg fill FDKP, two discharges, n=30

Compound: O=C(O)/C=C/C(=O)NCCCCC1NC(=O)C(CCCCNC(=O)/C=C/C(=O)O)NC1=O (stereo not shown) [FDKP, 3,6-bis(N-fumaryl-4-aminobutyl)-2,5-diketopiperazine]
- VMGD [1]: 6.800 micron
- Ave. Geometric SD [2, 4]: 3.79 μm
- Ave. VMGD [2, 4]: 6.84 μm
- Ave. Geometric SD [2, 5]: 2.94 μm
- Ave. VMGD [2, 5]: 21.21 μm
- delivery of FDKP into the systemic circulation, DPI 1 better than MEDTONE ([3]; DPI 1 vs MEDTONE inhaler): about 30%
- increase in FDKP plasma AUC, DPI 1 over MEDTONE ([3]; FDKP 10 mg): ~2 fold
- AVG mean AUC fdkp per emitted fdkp mass ([3]; Part 1, DPI 1, cartridge 10 mg fdkp): 3495 ng * min/mL * mg fdkp
- AVG mean AUC fdkp per emitted fdkp mass ([3]; Part 1, MT (MEDTONE), two inhalations, cartridge 10 mg fdkp): 1934 ng * min/mL * mg fdkp
- AVG mean AUC fdkp per emitted fdkp mass ([3]; Part 2, DPI 1, 10 mg, long inhalation time): 3289 ng * min/mL * mg fdkp
- AVG mean AUC fdkp per emitted fdkp mass ([3]; Part 2, DPI 1, 10 mg, short inhalation time): 3310 ng * min/mL * mg fdkp
- AVG mean AUC fdkp per emitted fdkp mass ([3]; Part 3, DPI 1, 10 mg, easy inhalation effort): 3925 ng * min/mL * mg fdkp
- AVG mean AUC fdkp per emitted fdkp mass ([3]; Part 3, DPI 1, 10 mg, hard inhalation effort): 3867 ng * min/mL * mg fdkp
